Target: jack bean urease (EC 3.5.1.5) (Canavalia ensiformis, UniProt P07374)
Sequence (P07374 whole entry, looked up): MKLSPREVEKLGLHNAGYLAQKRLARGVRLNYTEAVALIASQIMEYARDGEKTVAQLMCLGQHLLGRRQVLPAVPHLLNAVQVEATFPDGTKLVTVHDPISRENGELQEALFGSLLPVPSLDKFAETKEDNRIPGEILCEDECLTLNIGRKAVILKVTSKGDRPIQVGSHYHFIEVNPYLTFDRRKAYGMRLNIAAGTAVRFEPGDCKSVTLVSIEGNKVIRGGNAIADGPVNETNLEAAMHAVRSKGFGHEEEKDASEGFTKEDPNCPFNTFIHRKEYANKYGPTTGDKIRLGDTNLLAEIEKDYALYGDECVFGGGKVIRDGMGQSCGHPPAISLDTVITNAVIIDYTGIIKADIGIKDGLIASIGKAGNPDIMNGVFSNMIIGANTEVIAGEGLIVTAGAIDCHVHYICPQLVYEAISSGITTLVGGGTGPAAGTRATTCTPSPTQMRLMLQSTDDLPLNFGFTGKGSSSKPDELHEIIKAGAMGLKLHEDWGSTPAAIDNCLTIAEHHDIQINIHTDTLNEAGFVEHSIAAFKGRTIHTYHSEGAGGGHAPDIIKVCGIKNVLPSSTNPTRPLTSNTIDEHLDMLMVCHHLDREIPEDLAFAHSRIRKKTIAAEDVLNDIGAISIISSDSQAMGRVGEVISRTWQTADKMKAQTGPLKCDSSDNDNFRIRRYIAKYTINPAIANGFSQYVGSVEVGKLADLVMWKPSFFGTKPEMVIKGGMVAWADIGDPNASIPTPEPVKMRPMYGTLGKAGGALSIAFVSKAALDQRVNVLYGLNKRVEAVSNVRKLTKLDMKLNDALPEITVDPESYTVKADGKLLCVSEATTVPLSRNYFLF
Assay: Urease inhibition method
Type: biochemical
Details: not given
O=C1NC(=O)C(C2c3ccccc3C(=O)N2c2ccccc2)C(=O)N1 (stereo not shown) [5a, 5-(3-Oxo-2-phenylisoindolin-1-yl) Barbituric Acid] gave an IC50 of 1.85 ± 0.06 µM.
For COc1ccc(N2C(=O)c3ccccc3C2C2C(=O)NC(=O)NC2=O)cc1 (stereo not shown) [5b, 5-(2-(4-Methoxyphenyl)-3-oxoisoindolin-1-yl) Barbituric Acid], the IC50 was 0.82 ± 0.03 µM.
Work on O=C1NC(=O)C(C2c3ccccc3C(=O)N2c2ccc(Cl)cc2)C(=O)N1 (stereo not shown) [5c, 5-(2-(4-Chlorophenyl)-3-oxoisoindolin-1-yl) Barbituric Acid] yielded an IC50 of 1.25 ± 0.05 µM.
For Cc1ccc(N2C(=O)c3ccccc3C2C2C(=O)NC(=O)NC2=O)cc1C (stereo not shown) [5d, 5-(2-(3,4-Dimethylphenyl)-3-oxoisoindolin-1-yl) Barbituric Acid], the IC50 was 1.07 ± 0.02 µM.
With O=C1NC(=O)C(C2c3ccccc3C(=O)N2c2ccc(Br)cc2)C(=O)N1 (stereo not shown) [5e, 5-(2-(4-Bromophenyl)-3-oxoisoindolin-1-yl) Barbituric Acid] the IC50 was 0.96 ± 0.01 µM.
Work on O=C1NC(=O)C(C2c3ccccc3C(=O)N2c2ccc(Cl)c(Cl)c2)C(=O)N1 (stereo not shown) [5f, 5-(2-(3,4-Dichlorophenyl)-3-oxoisoindolin-1-yl) Barbituric Acid] yielded an IC50 of 0.96 ± 0.01 µM.
Work on Cc1ccc(N2C(=O)c3ccccc3C2C2C(=O)NC(=O)NC2=O)cc1 (stereo not shown) [5g, 5-(3-Oxo-2-(p-tolyl) Isoindolin-1-yl) Barbituric Acid] yielded an IC50 of 1.09 ± 0.07 µM.
In the case of O=C1NC(=O)C(C2c3ccccc3C(=O)N2c2ccc(F)cc2)C(=O)N1 (stereo not shown) [5h, 5-(2-(4-Fluorophenyl)-3-oxoisoindolin-1-yl) Barbituric Acid], the IC50 is reported as 1.28 ± 0.04 µM.
Molecule O=C1NC(=O)C(C2c3ccccc3C(=O)N2c2cccc(Cl)c2)C(=O)N1 (stereo not shown) [5i, 5-(2-(3-Chlorophenyl)-3-oxoisoindolin-1-yl) Barbituric Acid] has an IC50 of 1.22 ± 0.05 µM.
With O=C1NC(=O)C(C2c3ccccc3C(=O)N2c2cc(Cl)cc(Cl)c2)C(=O)N1 (stereo not shown) [5j, 5-(2-(3,5-Dichlorophenyl)-3-oxoisoindolin-1-yl) Barbituric Acid] the IC50 was 1.78 ± 0.1 µM.
For CC(C)CN1C(=O)c2ccccc2C1C1C(=O)NC(=O)NC1=O (stereo not shown) [5k, 5-(2-Isobutyl-3-oxoisoindolin-1-yl) Barbituric Acid], the IC50 was 1.62 ± 0.05 µM.
For CC(C)N1C(=O)c2ccccc2C1C1C(=O)NC(=O)NC1=O (stereo not shown) [5l, 5-(2-Isopropyl-3-oxoisoindolin-1-yl) Barbituric Acid], the IC50 was 1.85 ± 0.06 µM.
For COc1ccc(N2C(=O)c3ccccc3C2C2C(=O)N(C)C(=O)N(C)C2=O)cc1 (stereo not shown) [5m, 1,3-Dimethyl-5-(2-(4-methoxyphenyl)-3-oxoisoindolin-1-yl) Barbituric Acid], the IC50 was 0.97 ± 0.01 µM.
Work on COc1ccc(N2C(=O)c3ccccc3C2C2C(=O)NC(=S)NC2=O)cc1 (stereo not shown) [5n, 5-(2-(4-Methoxyphenyl)-3-oxoisoindolin-1-yl)-2-thiobarbituric Acid] yielded an IC50 of 1.34 ± 0.01 µM.

Same assay, conditions: read-out: IC50 ± SEM; jack bean urease; triplicate, mean ± SEM
NC(N)=S [thiourea, reference compound] showed an IC50 of 22 ± 1.2 µM.

Test system: not listed separately
Assay: Solubility in solvents for NMR
Type: physicochemical
Details: not given
With CN1C(=O)C(C2OC(=O)c3ccccc32)C(=O)N(C)C1=O (stereo not shown) [3b, 1,3-Dimethyl-5-(3-oxo-1,3-dihydroisobenzofuran-1-yl) Barbituric Acid] the solubility in solvents was “soluble in CHCl3”.

— paper PMC9202281 (ACS Omega, 2022)
